According to article PMC7948422, “Repurposing p97 inhibitors for chemical modulation of the bacterial ClpB–DnaK bichaperone system” (The Journal of Biological Chemistry, 2020):
Entries after “also recorded” stand apart in the source; their conditions may differ.

What was measured:
[1] = target: T1, ClpB W462F (Escherichia coli, UniProt P63284, W462F); experiment: Surface plasmon resonance, immobilized ClpB W462F; format: binding
T1 construct: made in house
Procedure: (§1) ClpB, DnaK, and the NBD of DnaK were extensively dialyzed against the SPR buffer (20-mM Hepes, pH 7.4, 150-mM NaCl, 20-mM MgCl2, 1-mM EDTA, 1-mM DTT). After dialysis, the protein concentration was determined by the Bradford method. The DBeQ–protein interactions were studied using a Biacore T200 instrument (GE Healthcare) at 25 °C. The proteins were diluted to 300 μg/ml in 10-mM sodium acetate buffer (pH 5 for ClpB DnaK or pH 4 for NBD) and immobilized on HC1500M sensor chips (Xantec) by standard amine coupling chemistry as described previously ([70]). A reference flow cell was created by ethyl(dimethylaminopropyl) carbodiimide/N-hydroxysuccinimide activation followed by quenching with 1 M ethanolamine (pH 9.0). Solvent correction curves were obtained at the beginning and end and after every 50 injection cycles by injecting varying DMSO concentrations (4.0, 4.4, 4.6, 4.8, 5.0, 5.2, 5.4, and 5.9% [v/v]). All experiments were performed using a flow rate of 30 μl/min.
Binding isotherms were obtained with the ligand diluted to different concentrations in the SPR running buffer HBSMTD (20-mM Hepes, pH 7.4, 140-mM NaCl, 20-mM MgCl2, 5% (v/v) DMSO, 0.005% (v/v) Tween-20). Replicate injections were performed for all samples, and a buffer-only injection was performed for every 12 injection cycles. To test the structural integrity of ClpB after immobilization on the sensor chips, we performed control titrations with ATPγS and adenosine. The dissociation constants determined from those experiments were ∼20 μM for ATPγS and ∼2 mM for adenosine. […] Moreover, the immobilized ClpB discriminated between a nucleotide analog and a nucleoside, which indicated an adequate structural integrity of ClpB on the sensor chips.
The resulting sensorgrams were analyzed using Biacore T200 Evaluation Software v3.0 according to the following procedure. Solvent correction curves were generated and applied to all data sets, and all sensorgrams were double-referenced by subtracting the most recent buffer blank injection. […]

[2] = target: T2, DnaK NBD (Escherichia coli, UniProt P0A6Y8); experiment: Surface plasmon resonance, immobilized DnaK NBD; format: binding
T2 construct: the NBD of E. coli DnaK (residues 1–388); His-tag (pET28a) (C); made in house; host or cells: E. coli BL21(DE3)
Procedure: as §1, with “All experiments were performed using a flow rate of 30 μl/min.” left out
Binding isotherms were obtained with the ligand diluted to different concentrations in the SPR running buffer HBSMTD (20-mM Hepes, pH 7.4, 140-mM NaCl, 20-mM MgCl2, 5% (v/v) DMSO, 0.005% (v/v) Tween-20). […] The dissociation constants determined from those experiments were ∼20 μM for ATPγS and ∼2 mM for adenosine. […]
The resulting sensorgrams were analyzed using Biacore T200 Evaluation Software v3.0 according to the following procedure. […]

[3] = target: T2, DnaK NBD; experiment: DnaK NBD ATPase activity assay; format: biochemical; conditions: 100 µM DBeQ, 37 °C
Procedure: To determine the ATPase activity of DnaK, 18 μl of DnaK solution or DnaK NBD solution prepared in buffer C was mixed with 1 μl of the investigated compounds or DMSO as a control. Samples without DnaK were used as control blanks. The samples were preincubated for 10 min at 37 °C. The reaction was initiated by adding 1 μl of 100-mM ATP bringing the final concentration of DnaK to 1.1 μM or DnaK NBD to 3.4 μM. The samples were incubated at 37 °C for 70 min for DnaK or 75 min for NBD. The concentration of inorganic phosphate produced from ATP in the presence of DnaK was determined as described above for ClpB.

[4] = test system: E. coli MC4100ΔclpB; experiment: Bacterial growth and viability, MC4100ΔclpB; format: cell-based, Escherichia coli; conditions: 37 °C
Procedure: E. coli MC4100, MC4100ΔclpB, dnaK103, and dnaK756 strains were used to determine an influence of DBeQ on bacterial growth and viability. Bacteria were maintained in the LB media, and in the case of the MC4100ΔclpB strain, LB was supplemented with 30 μg/ml kanamycin. All experiments were initiated by preparing overnight cultures inoculated from single colonies and grown at 37 °C. The dnaK103 and dnaK756 overnight cultures were grown at 30 °C. On the following day, the cultures were diluted 100-fold in 10 ml of LB without antibiotics and incubated at 37 °C. The culture optical density was monitored at 600 nm. When absorbance at 600 nm reached 0.4, the culture was divided into 1-ml aliquots and supplemented with 10 μl of DMSO or different concentrations of DBeQ in DMSO. The samples were immediately transferred into an incubator/shaker at temperature 37, 45, or 50 °C. Bacteria were cultured for up to 4 h with shaking (200 RPM). At specific time points, 100 μl of each culture was withdrawn and serially diluted in sterile 0.9% NaCl up to 10^6-fold dilution. To estimate the number of viable cells, 5 μl or 10 μl of the diluted cultures was spread on the LB-agar plate without an antibiotic. […] On the following day, the bacterial colonies were counted and the colony-forming units/ml were calculated.

T2 sequence (P0A6Y8 1-388): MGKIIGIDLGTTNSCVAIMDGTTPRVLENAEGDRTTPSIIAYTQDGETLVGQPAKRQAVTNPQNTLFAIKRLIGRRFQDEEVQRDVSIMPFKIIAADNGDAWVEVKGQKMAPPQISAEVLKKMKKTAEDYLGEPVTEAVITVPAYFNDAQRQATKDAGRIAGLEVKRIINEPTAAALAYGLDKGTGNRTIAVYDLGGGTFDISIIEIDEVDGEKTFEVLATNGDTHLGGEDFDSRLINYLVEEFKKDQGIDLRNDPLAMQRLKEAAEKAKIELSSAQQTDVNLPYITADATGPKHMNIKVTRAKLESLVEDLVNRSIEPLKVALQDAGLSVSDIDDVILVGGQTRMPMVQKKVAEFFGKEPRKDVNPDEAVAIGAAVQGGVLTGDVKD
T1 sequence (P63284 whole entry W462F, looked up): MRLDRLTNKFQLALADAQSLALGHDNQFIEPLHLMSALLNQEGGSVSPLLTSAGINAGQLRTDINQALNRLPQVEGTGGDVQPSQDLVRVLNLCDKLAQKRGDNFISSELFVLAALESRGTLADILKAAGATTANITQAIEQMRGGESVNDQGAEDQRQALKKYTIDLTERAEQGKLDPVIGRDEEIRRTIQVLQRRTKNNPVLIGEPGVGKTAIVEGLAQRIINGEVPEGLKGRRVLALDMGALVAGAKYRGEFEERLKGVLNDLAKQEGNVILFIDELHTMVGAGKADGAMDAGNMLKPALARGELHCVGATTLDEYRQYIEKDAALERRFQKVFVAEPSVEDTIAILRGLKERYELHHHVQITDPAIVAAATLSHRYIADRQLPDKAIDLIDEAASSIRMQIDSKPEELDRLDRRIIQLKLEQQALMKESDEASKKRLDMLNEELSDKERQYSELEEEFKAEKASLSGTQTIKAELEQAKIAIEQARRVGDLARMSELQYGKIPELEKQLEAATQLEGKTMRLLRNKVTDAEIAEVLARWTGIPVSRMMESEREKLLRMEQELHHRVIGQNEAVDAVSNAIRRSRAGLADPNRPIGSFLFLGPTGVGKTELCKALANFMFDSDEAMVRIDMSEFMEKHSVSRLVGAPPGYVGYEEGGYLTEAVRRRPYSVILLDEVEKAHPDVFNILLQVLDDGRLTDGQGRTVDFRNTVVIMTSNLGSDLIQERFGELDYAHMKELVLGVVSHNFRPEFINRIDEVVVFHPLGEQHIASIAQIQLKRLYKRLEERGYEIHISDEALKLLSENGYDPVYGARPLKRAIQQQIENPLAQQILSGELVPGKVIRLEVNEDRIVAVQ

## c1ccc(CNc2nc(NCc3ccccc3)c3ccccc3n2)cc1 [DBeQ, N^2,N^4-dibenzylquinazoline-2,4-diamine]
[1]
  Kd: 61.4 ± 4.7 µM
[1]; SPR
  Bmax (SPR signal at saturation), ClpB W462F: 1.08 ± 0.03
  Hill coefficient, ClpB W462F: 2.4 ± 0.4
[2]
  Kd: 95 ± 16 µM
[2]; SPR
  Bmax (SPR signal at saturation), DnaK NBD: 1.98 ± 0.20
[3]
  effect on ATPase activity of isolated DnaK NBD: did not inhibit
[4]
  effect on growth of ΔclpB strain: nearly eliminated; also recorded: effects were eliminated
